# Experimental data from ChEMBL document CHEMBL1909046, “DrugMatrix in vitro pharmacology data”.
# Biological target: 5-hydroxytryptamine receptor 2B (Homo sapiens, UniProt P41595); also: in other assays of this panel Not Active means under 50% inhibition at 10 µM
# Assay type: cell membranes, CHO-K1, Membrane
# Settings: cho-k1
# Chain of 5-hydroxytryptamine receptor 2B (P41595 whole entry): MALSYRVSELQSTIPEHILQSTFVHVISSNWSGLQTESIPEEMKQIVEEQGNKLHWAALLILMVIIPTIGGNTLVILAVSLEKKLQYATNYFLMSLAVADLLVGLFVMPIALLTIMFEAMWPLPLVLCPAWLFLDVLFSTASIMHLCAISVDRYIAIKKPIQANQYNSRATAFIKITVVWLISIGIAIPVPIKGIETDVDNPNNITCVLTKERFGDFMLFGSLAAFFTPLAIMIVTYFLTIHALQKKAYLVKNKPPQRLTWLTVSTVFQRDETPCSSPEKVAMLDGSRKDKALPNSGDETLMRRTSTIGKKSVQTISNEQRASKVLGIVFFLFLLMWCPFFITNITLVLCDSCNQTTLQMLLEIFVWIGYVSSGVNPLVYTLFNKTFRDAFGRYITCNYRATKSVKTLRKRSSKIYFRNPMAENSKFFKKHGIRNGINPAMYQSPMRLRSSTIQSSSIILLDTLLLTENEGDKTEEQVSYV
row,SMILES,IC50
1,CN(C)c1ccc(C(=C2C=CC(=[N+](C)C)C=C2)c2ccc(N(C)C)cc2)cc1.[Cl-] [GENTIAN VIOLET],Not Active
2,Cc1ccc(S(=O)(=O)NC(=O)NN2CC3CCCC3C2)cc1 (centres undefined) [GLICLAZIDE],Not Active
3,NC(=O)NO [HYDROXYUREA],Not Active
4,CC(C)Cc1ccc(C(C)C(=O)O)cc1 (centres undefined) [IBUPROFEN],Not Active
5,COc1ccc2c(c1)c(CC(=O)O)c(C)n2C(=O)c1ccc(Cl)cc1 [INDOMETHACIN],Not Active
6,CCc1c2c(nc3ccc(OC(=O)N4CCC(N5CCCCC5)CC4)cc13)-c1cc3c(c(=O)n1C2)COC(=O)[C@]3(O)CC [IRINOTECAN],Not Active
7,CC(C(=O)O)c1cccc(C(=O)c2ccccc2)c1 (centres undefined) [KETOPROFEN],Not Active

# Same assay, conditions: read-out: IC50
row,SMILES,IC50 [µM]
1,C[C@]12CC[C@@H]3c4ccc(OC(=O)c5ccccc5)cc4CC[C@H]3[C@@H]1CC[C@@H]2O [ESTRADIOL BENZOATE],11.6

# Same assay, conditions: read-out: Ki
row,SMILES,Ki [µM]
1,C[C@]12CC[C@@H]3c4ccc(OC(=O)c5ccccc5)cc4CC[C@H]3[C@@H]1CC[C@@H]2O [ESTRADIOL BENZOATE],7.36

# Tested on: not listed separately
# Assay: DRUGMATRIX: Glutamate, AMPA radioligand binding (ligand: [3H] AMPA)
# Assay type: cell membranes, Rattus norvegicus, Wistar, Cerebral cortex, Membrane
# Settings: Not Active = under 50% inhibition at 10 µM
SMILES,IC50,Ki
C[C@]12CC[C@@H]3c4ccc(OC(=O)c5ccccc5)cc4CC[C@H]3[C@@H]1CC[C@@H]2O [ESTRADIOL BENZOATE],Not Active,Not Active
CN(C)c1ccc(C(=C2C=CC(=[N+](C)C)C=C2)c2ccc(N(C)C)cc2)cc1.[Cl-] [GENTIAN VIOLET],Not Active,Not Active
Cc1ccc(S(=O)(=O)NC(=O)NN2CC3CCCC3C2)cc1 (centres undefined) [GLICLAZIDE],Not Active,Not Active
NC(=O)NO [HYDROXYUREA],Not Active,Not Active
CC(C)Cc1ccc(C(C)C(=O)O)cc1 (centres undefined) [IBUPROFEN],Not Active,Not Active
COc1ccc2c(c1)c(CC(=O)O)c(C)n2C(=O)c1ccc(Cl)cc1 [INDOMETHACIN],Not Active,Not Active
CCc1c2c(nc3ccc(OC(=O)N4CCC(N5CCCCC5)CC4)cc13)-c1cc3c(c(=O)n1C2)COC(=O)[C@]3(O)CC [IRINOTECAN],Not Active,Not Active
CC(C(=O)O)c1cccc(C(=O)c2ccccc2)c1 (centres undefined) [KETOPROFEN],Not Active,Not Active

# Biological target: T1, 3-hydroxy-3-methylglutaryl-coenzyme A reductase (Homo sapiens, UniProt P04035);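 also: enzyme inhibition assay of HMG-CoA reductase using radiolabeled [14C]HMG-CoA as substrate; in other assays of this panel Not Active means under 50% inhibition at 10 µM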
# T1 sequence (P04035 whole entry): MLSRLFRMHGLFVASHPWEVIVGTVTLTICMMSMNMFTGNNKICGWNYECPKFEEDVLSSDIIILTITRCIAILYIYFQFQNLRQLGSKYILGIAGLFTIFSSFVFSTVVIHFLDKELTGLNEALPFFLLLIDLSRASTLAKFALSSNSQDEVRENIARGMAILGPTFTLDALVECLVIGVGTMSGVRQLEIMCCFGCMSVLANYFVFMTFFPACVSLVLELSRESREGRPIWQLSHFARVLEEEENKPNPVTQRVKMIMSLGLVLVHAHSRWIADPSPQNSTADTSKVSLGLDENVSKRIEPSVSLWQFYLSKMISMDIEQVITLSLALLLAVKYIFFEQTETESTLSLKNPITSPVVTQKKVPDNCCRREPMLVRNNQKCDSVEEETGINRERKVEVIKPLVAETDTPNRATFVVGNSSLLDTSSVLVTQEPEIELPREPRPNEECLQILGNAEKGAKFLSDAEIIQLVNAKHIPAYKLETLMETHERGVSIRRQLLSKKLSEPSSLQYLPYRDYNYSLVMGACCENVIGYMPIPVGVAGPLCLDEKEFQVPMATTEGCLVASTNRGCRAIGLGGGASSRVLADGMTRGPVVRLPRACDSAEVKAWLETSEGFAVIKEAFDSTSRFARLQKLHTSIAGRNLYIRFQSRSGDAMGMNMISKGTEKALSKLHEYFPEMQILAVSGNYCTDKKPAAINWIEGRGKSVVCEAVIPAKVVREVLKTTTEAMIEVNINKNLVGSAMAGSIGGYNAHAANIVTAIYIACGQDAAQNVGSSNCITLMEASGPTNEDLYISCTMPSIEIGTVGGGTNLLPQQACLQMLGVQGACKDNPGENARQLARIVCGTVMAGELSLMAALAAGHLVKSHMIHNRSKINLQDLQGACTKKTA
# Design: species or system Escherichia coli
# Settings: not given
row,SMILES,IC50
1,C[C@]12CC[C@@H]3c4ccc(OC(=O)c5ccccc5)cc4CC[C@H]3[C@@H]1CC[C@@H]2O [ESTRADIOL BENZOATE],Not Active
2,CN(C)c1ccc(C(=C2C=CC(=[N+](C)C)C=C2)c2ccc(N(C)C)cc2)cc1.[Cl-] [GENTIAN VIOLET],Not Active
3,Cc1ccc(S(=O)(=O)NC(=O)NN2CC3CCCC3C2)cc1 (centres undefined) [GLICLAZIDE],Not Active
4,NC(=O)NO [HYDROXYUREA],Not Active
5,CC(C)Cc1ccc(C(C)C(=O)O)cc1 (centres undefined) [IBUPROFEN],Not Active
6,COc1ccc2c(c1)c(CC(=O)O)c(C)n2C(=O)c1ccc(Cl)cc1 [INDOMETHACIN],Not Active
7,CCc1c2c(nc3ccc(OC(=O)N4CCC(N5CCCCC5)CC4)cc13)-c1cc3c(c(=O)n1C2)COC(=O)[C@]3(O)CC [IRINOTECAN],Not Active
8,CC(C(=O)O)c1cccc(C(=O)c2ccccc2)c1 (centres undefined) [KETOPROFEN],Not Active

# Biological target: C-C chemokine receptor type 2 (Homo sapiens, UniProt P41597); also: in other assays of this panel Not Active means under 50% inhibition at 10 µM
# Sequence (P41597 whole entry): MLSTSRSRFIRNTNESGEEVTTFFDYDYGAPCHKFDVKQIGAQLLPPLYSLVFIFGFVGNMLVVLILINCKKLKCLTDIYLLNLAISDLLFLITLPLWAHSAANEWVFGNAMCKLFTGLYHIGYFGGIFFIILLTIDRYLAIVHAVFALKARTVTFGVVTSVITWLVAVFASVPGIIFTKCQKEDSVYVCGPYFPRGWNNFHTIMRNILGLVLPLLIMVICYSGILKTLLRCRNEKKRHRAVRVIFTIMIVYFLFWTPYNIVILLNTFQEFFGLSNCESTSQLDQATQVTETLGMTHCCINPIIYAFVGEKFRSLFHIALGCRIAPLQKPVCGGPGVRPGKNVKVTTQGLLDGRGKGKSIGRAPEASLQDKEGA
# Assay type: cell membranes, CHO-K1, Membrane
# Settings: cho-k1
row,SMILES,IC50
1,C[C@]12CC[C@@H]3c4ccc(OC(=O)c5ccccc5)cc4CC[C@H]3[C@@H]1CC[C@@H]2O [ESTRADIOL BENZOATE],Not Active
2,CN(C)c1ccc(C(=C2C=CC(=[N+](C)C)C=C2)c2ccc(N(C)C)cc2)cc1.[Cl-] [GENTIAN VIOLET],Not Active
3,Cc1ccc(S(=O)(=O)NC(=O)NN2CC3CCCC3C2)cc1 (centres undefined) [GLICLAZIDE],Not Active
4,NC(=O)NO [HYDROXYUREA],Not Active
5,CC(C)Cc1ccc(C(C)C(=O)O)cc1 (centres undefined) [IBUPROFEN],Not Active
6,COc1ccc2c(c1)c(CC(=O)O)c(C)n2C(=O)c1ccc(Cl)cc1 [INDOMETHACIN],Not Active
7,CCc1c2c(nc3ccc(OC(=O)N4CCC(N5CCCCC5)CC4)cc13)-c1cc3c(c(=O)n1C2)COC(=O)[C@]3(O)CC [IRINOTECAN],Not Active
8,CC(C(=O)O)c1cccc(C(=O)c2ccccc2)c1 (centres undefined) [KETOPROFEN],Not Active

# Tested on: not listed separately
# Assay: DRUGMATRIX: GABAA, Flunitrazepam, Central radioligand binding (ligand: [3H] Flunitrazepam)
# Assay type: cell membranes, Rattus norvegicus, Wistar, Brain, Membrane
# Settings: Not Active = under 50% inhibition at 10 µM
SMILES,IC50,Ki
C[C@]12CC[C@@H]3c4ccc(OC(=O)c5ccccc5)cc4CC[C@H]3[C@@H]1CC[C@@H]2O [ESTRADIOL BENZOATE],Not Active,Not Active
CN(C)c1ccc(C(=C2C=CC(=[N+](C)C)C=C2)c2ccc(N(C)C)cc2)cc1.[Cl-] [GENTIAN VIOLET],Not Active,Not Active
Cc1ccc(S(=O)(=O)NC(=O)NN2CC3CCCC3C2)cc1 (centres undefined) [GLICLAZIDE],Not Active,Not Active
NC(=O)NO [HYDROXYUREA],Not Active,Not Active
CC(C)Cc1ccc(C(C)C(=O)O)cc1 (centres undefined) [IBUPROFEN],Not Active,Not Active
COc1ccc2c(c1)c(CC(=O)O)c(C)n2C(=O)c1ccc(Cl)cc1 [INDOMETHACIN],Not Active,Not Active
CCc1c2c(nc3ccc(OC(=O)N4CCC(N5CCCCC5)CC4)cc13)-c1cc3c(c(=O)n1C2)COC(=O)[C@]3(O)CC [IRINOTECAN],Not Active,Not Active
CC(C(=O)O)c1cccc(C(=O)c2ccccc2)c1 (centres undefined) [KETOPROFEN],Not Active,Not Active

# Tested on: not listed separately
# Assay: DRUGMATRIX: Atrial Natriuretic Factor (ANF) radioligand binding (ligand: [125I] ANF (rat))
# Assay type: cell membranes, Cavia porcellus, Dunkin-Hartley, Adrenal gland, Membrane
# Settings: Not Active = under 50% inhibition at 10 µM
SMILES,IC50,Ki
C[C@]12CC[C@@H]3c4ccc(OC(=O)c5ccccc5)cc4CC[C@H]3[C@@H]1CC[C@@H]2O [ESTRADIOL BENZOATE],Not Active,Not Active
CN(C)c1ccc(C(=C2C=CC(=[N+](C)C)C=C2)c2ccc(N(C)C)cc2)cc1.[Cl-] [GENTIAN VIOLET],Not Active,Not Active
Cc1ccc(S(=O)(=O)NC(=O)NN2CC3CCCC3C2)cc1 (centres undefined) [GLICLAZIDE],Not Active,Not Active
NC(=O)NO [HYDROXYUREA],Not Active,Not Active
CC(C)Cc1ccc(C(C)C(=O)O)cc1 (centres undefined) [IBUPROFEN],Not Active,Not Active
COc1ccc2c(c1)c(CC(=O)O)c(C)n2C(=O)c1ccc(Cl)cc1 [INDOMETHACIN],Not Active,Not Active
CCc1c2c(nc3ccc(OC(=O)N4CCC(N5CCCCC5)CC4)cc13)-c1cc3c(c(=O)n1C2)COC(=O)[C@]3(O)CC [IRINOTECAN],Not Active,Not Active
CC(C(=O)O)c1cccc(C(=O)c2ccccc2)c1 (centres undefined) [KETOPROFEN],Not Active,Not Active

# Tested on: not listed separately
# Assay: DRUGMATRIX: Glutamate, Kainate radioligand binding (ligand: [3H] Kainic acid)
# Assay type: cell membranes, Rattus norvegicus, Wistar, Brain, Membrane
# Settings: Not Active = under 50% inhibition at 10 µM
SMILES,IC50,Ki
C[C@]12CC[C@@H]3c4ccc(OC(=O)c5ccccc5)cc4CC[C@H]3[C@@H]1CC[C@@H]2O [ESTRADIOL BENZOATE],Not Active,Not Active
CN(C)c1ccc(C(=C2C=CC(=[N+](C)C)C=C2)c2ccc(N(C)C)cc2)cc1.[Cl-] [GENTIAN VIOLET],Not Active,Not Active
Cc1ccc(S(=O)(=O)NC(=O)NN2CC3CCCC3C2)cc1 (centres undefined) [GLICLAZIDE],Not Active,Not Active
NC(=O)NO [HYDROXYUREA],Not Active,Not Active
CC(C)Cc1ccc(C(C)C(=O)O)cc1 (centres undefined) [IBUPROFEN],Not Active,Not Active
COc1ccc2c(c1)c(CC(=O)O)c(C)n2C(=O)c1ccc(Cl)cc1 [INDOMETHACIN],Not Active,Not Active
CCc1c2c(nc3ccc(OC(=O)N4CCC(N5CCCCC5)CC4)cc13)-c1cc3c(c(=O)n1C2)COC(=O)[C@]3(O)CC [IRINOTECAN],Not Active,Not Active
CC(C(=O)O)c1cccc(C(=O)c2ccccc2)c1 (centres undefined) [KETOPROFEN],Not Active,Not Active
